In patent US8952024B2, “Herbicidal pyrimidone derivatives” (E I du Pont de Nemours and Company, priority 2009, dated 2015):

Assays:
Format in all cases: in vivo
[1] = system: chickweed (Stellaria media); experiment: Test B postemergence plant response
In short: (§1)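 Visual ratings from 0 (no effect) to 100 (complete control), made against controls 13–15 days after treatment, kept in a greenhouse. Compounds were applied postemergence to potted plants at the 1- to 4-leaf stage (2–18 cm).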

[2] = system: canarygrass (Phalaris minor); experiment: Test B postemergence plant response
In short: as §1

[3] = system: winter barley (Hordeum vulgare); experiment: Test B postemergence plant response
In short: as §1

[4] = system: windgrass (Apera spica-venti); experiment: Test B postemergence plant response
In short: as §1

[5] = system: Italian ryegrass (Lolium multiflorum); experiment: Test B pre-/postemergence plant response
In short: (§2)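 Seeds were sown in loam soil/sand blend and treated preemergence with compound in non-phytotoxic solvent mixture containing surfactant; postemergence sprays, same formulation, went onto plants 2 to 18 cm (1- to 4-leaf stage) in peat-based planting medium. Greenhouse 13 to 15 days, then visual rating versus untreated controls, 0 (no effect) to 100 (complete control).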

[6] = system: sunflower (common oilseed sunflower, Helianthus annuus); experiment: Test B pre-/postemergence plant response; conditions: Preemergence
In short: as §2

[7] = system: nightshade (eastern black nightshade, Solanum ptycanthum); experiment: Test B pre-/postemergence plant response; conditions: Preemergence
In short: as §2

[8] = system: giant foxtail (Setaria faberii); experiment: Test B pre-/postemergence plant response
In short: as §2

[9] = system: Russian thistle (Salsola kali); experiment: Test B pre-/postemergence plant response; conditions: Preemergence
In short: as §2

[10] = system: galium (catchweed bedstraw, Galium aparine); experiment: Test B pre-/postemergence plant response; conditions: Preemergence
In short: as §2

[11] = system: ragweed (common ragweed, Ambrosia elatior); experiment: Test B pre-/postemergence plant response
In short: as §2

[12] = system: rice (Oryza sativa); experiment: Test B flooded paddy test; conditions: for Plant response rating, Rice: Flood (flooded paddy test), 13 to 15 days
In short: (§3)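 Rice, umbrella sedge, ducksalad and barnyardgrass were grown to the 2-leaf stage, flooded to 3 cm, and compound was applied directly to the paddy water, with that depth kept throughout. After 13 to 15 days in the greenhouse, plants were visually rated against controls on a 0 (no effect) to 100 (complete control) scale.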

[13] = system: barnyardgrass (Echinochloa crus-galli); experiment: Test B flooded paddy test; conditions: for Plant response rating, Barnyardgrass: Flood (flooded paddy test), 13 to 15 days
In short: as §3

[14] = system: ducksalad (Heteranthera limosa); experiment: Test B flooded paddy test; conditions: for Plant response rating, Ducksalad: Flood (flooded paddy test), 13 to 15 days
In short: as §3

[15] = system: umbrella sedge (Cyperus difformis); experiment: Test B flooded paddy test; conditions: for Plant response rating, Sedge, Umbrella: Flood (flooded paddy test), 13 to 15 days
In short: as §3

[16] = 31 g ai/ha, postemergence, scale 0 to 100, 0 is no effect, 100 is complete control
[17] = 62 g ai/ha, postemergence, 0 is no effect, 100 is complete control, 13 to 15 days
[18] = Postemergence, 125 g ai/ha, visual rating after 13 to 15 days, scale 0 (no effect) to 100 (complete control)
[19] = Postemergence, 250 g ai/ha, scale 0 to 100 (0 no effect, 100 complete control)
[20] = Preemergence, 31 g ai/ha, scale 0 to 100 (0 no effect, 100 complete control)
[21] = Preemergence, 62 g ai/ha, scale 0 to 100, 0 no effect, 100 complete control
[22] = Preemergence, 125 g ai/ha, scale 0 to 100, 0 no effect, 100 complete control
[23] = 31 g ai/ha, scale 0 to 100 (0 no effect, 100 complete control)
[24] = 62 g ai/ha, scale 0 to 100, 0 no effect, 100 complete control
[25] = 125 g ai/ha, scale 0 to 100, 0 no effect, 100 complete control
[26] = 250 g ai/ha, flooded paddy test, visual rating on 0 to 100 scale (0 no effect, 100 complete control) after 13 to 15 days
[27] = 62 g ai/ha, scale of 0 to 100 where 0 is no effect and 100 is complete control
[28] = 125 g ai/ha, scale 0 to 100, 0 is no effect, 100 is complete control
[29] = Flood, 31 g ai/ha, scale 0 to 100 (0 no effect, 100 complete control)

CCCc1ncc(C(=O)C2=C(O)CCCC2=O)c(=O)n1CCC [Compound 72]
Plant response rating, Chickweed [1, 16]: 70 | Chickweed plant response rating (0 to 100 scale) [1, 17]: 85 | Plant response rating, Chickweed [1, 18]: 90 | Plant response rating, Chickweed [1, 19]: 90 | Plant response rating, Canarygrass [2, 16]: 0 | Canarygrass plant response rating (0 to 100 scale) [2, 17]: 0 | Plant response rating, Canarygrass [2, 18]: 0 | Plant response rating, Canarygrass [2, 19]: 0 | Plant response rating, Barley [3, 16]: 0 | Barley plant response rating (0 to 100 scale) [3, 17]: 0 | Plant response rating, Barley [3, 18]: 0 | Plant response rating, Barley [3, 19]: 0 | Plant response rating, Windgrass [4, 16]: 5 | Windgrass plant response rating (0 to 100 scale) [4, 17]: 20 | Plant response rating, Windgrass [4, 18]: 60 | Plant response rating, Windgrass [4, 19]: 65 | Plant response rating, Ryegrass, Italian [5, 16]: 0 | Ryegrass, Italian plant response rating (0 to 100 scale) [5, 17]: 0 | Plant response rating, Ryegrass, Italian [5, 18]: 10 | Plant response rating, Ryegrass, Italian [5, 19]: 30 | Plant response rating, Ryegrass, Italian [5, 20]: 0 | Plant response rating, Ryegrass, Italian [5, 21]: 0 | Plant response rating, Ryegrass, Italian [5, 22]: 0 | Plant response rating, Sunflower [6, 23]: 25 | Plant response rating, Sunflower [6, 24]: 25 | Plant response rating, Sunflower [6, 25]: 65 | Plant response rating, Nightshade [7, 23]: 95 | Plant response rating, Nightshade [7, 24]: 95 | Plant response rating, Nightshade [7, 25]: 98 | Plant response rating, Foxtail, Giant [8, 16]: 65 | Foxtail, Giant plant response rating (0 to 100 scale) [8, 17]: 70 | Plant response rating, Foxtail, Giant ([8]; 250 g ai/ha, Preemergence, 0 to 100 scale): 65 | Plant response rating, Foxtail, Giant [8, 18]: 75 | Plant response rating, Foxtail, Giant [8, 19]: 80 | Plant response rating, Foxtail, Giant [8, 20]: 0 | Plant response rating, Foxtail, Giant [8, 21]: 5 | Plant response rating, Foxtail, Giant [8, 22]: 10 | Plant response rating, Russian Thistle [9, 23]: 0 | Plant response rating, Russian Thistle [9, 24]: 30 | Plant response rating, Russian Thistle [9, 25]: 80 | Plant response rating, Galium ([10]; 250 g ai/ha, 0 to 100 scale): 85 | Plant response rating, Galium [10, 23]: 0 | Plant response rating, Galium [10, 24]: 85 | Plant response rating, Galium [10, 25]: 85 | Plant response rating, Ragweed [11, 16]: 75 | Ragweed plant response rating (0 to 100 scale) [11, 17]: 80 | Plant response rating, Ragweed [11, 18]: 90 | Plant response rating, Ragweed [11, 19]: 95 | Plant response rating, Ragweed [11, 20]: 55 | Plant response rating, Ragweed [11, 21]: 70 | Plant response rating, Ragweed [11, 22]: 80 | Plant response rating, Flood, Rice [12, 26]: 20 | Plant response rating, Rice [12, 27]: 0 | Plant response rating, Rice [12, 28]: 20 | Rice plant response rating [12, 29]: 0 | Plant response rating, Flood, Barnyardgrass [13, 26]: 30 | Plant response rating, Barnyardgrass [13, 27]: 0 | Plant response rating, Barnyardgrass [13, 28]: 0 | Barnyardgrass plant response rating [13, 29]: 0 | Plant response rating, Flood, Ducksalad [14, 26]: 0 | Plant response rating, Ducksalad [14, 27]: 0 | Plant response rating, Ducksalad [14, 28]: 0 | Ducksalad plant response rating [14, 29]: 0 | Plant response rating, Flood, Sedge, Umbrella [15, 26]: 30 | Plant response rating, Sedge, Umbrella [15, 27]: 0 | Plant response rating, Sedge, Umbrella [15, 28]: 0 | Sedge, Umbrella plant response rating [15, 29]: 0
